Results as given in patent US8143290B2, “Chemical compounds 572” (AstraZeneca AB, priority 2006, dated 2012).

Target: T1, recombinant human GR (Homo sapiens, UniProt P04150)
T1 construct: purchased Panvera/Invitrogen P2812 (kit P2893)
T1 sequence (P04150 1-777): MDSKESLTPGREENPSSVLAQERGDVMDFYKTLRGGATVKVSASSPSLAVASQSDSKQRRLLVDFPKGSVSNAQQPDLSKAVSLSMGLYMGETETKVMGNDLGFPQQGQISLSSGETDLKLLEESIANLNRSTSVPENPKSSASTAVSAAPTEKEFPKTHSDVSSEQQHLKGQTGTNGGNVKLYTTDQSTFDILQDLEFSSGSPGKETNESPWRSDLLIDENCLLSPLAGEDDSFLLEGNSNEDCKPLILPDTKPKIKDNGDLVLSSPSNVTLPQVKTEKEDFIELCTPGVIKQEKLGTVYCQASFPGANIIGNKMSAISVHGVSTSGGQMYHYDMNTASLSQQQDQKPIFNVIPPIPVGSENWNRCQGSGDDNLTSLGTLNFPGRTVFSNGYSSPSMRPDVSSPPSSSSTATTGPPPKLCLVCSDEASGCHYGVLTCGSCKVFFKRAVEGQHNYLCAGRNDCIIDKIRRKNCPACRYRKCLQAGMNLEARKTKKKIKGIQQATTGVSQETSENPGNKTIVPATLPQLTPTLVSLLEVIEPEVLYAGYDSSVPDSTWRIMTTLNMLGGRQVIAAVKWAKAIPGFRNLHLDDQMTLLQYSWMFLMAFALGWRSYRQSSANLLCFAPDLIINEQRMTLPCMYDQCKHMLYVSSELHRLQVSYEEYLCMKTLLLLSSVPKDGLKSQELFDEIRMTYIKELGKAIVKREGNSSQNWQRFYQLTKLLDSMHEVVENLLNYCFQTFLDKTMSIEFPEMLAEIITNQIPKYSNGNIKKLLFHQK
Experiment: Human Glucocorticoid Receptor (GR) Assay, fluorescence polarization
Format: binding
Conditions: GS Red tracer, incubated 2 h at r.t., XLfit model 205, read-out: GRhuFL_FP_v2 Mean IC50
In short: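 After 2 h dark incubation at r.t., polarization reported displacement of the GS Red tracer from recombinant GR, in buffer with phosphate, molybdate, EDTA, DTT and Stabilizing Peptide. Controls: dexamethasone (100%) and DMSO (0%).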

Structure (SMILES) | IC50 [nM]
COc1cccc([C@@H](Oc2ccc3c(cnn3-c3ccc(F)cc3)c2)[C@H](C)NC(=O)c2nc[nH]n2)c1 [Example 281, N-[(1R,2S)-1-[1-(4-fluorophenyl)indazol-5-yl]oxy-1-(3-methoxyphenyl)propan-2-yl]-1H-1,2,4-triazole-3-carboxamide] | 3.8
COc1cccc([C@@H](Oc2ccc3c(cnn3-c3ccc(F)cc3)c2)[C@H](C)NC(=O)c2cc(C)[nH]n2)c1 [Example 282, N-[(1R,2S)-1-[1-(4-fluorophenyl)indazol-5-yl]oxy-1-(3-methoxyphenyl)propan-2-yl]-5-methyl-1H-pyrazole-3-carboxamide] | 2.4
COc1cccc([C@@H](Oc2ccc3c(cnn3-c3ccc(F)cc3)c2)[C@H](C)NC(=O)c2cn(C)cn2)c1 [Example 283, N-[(1R,2S)-1-[1-(4-fluorophenyl)indazol-5-yl]oxy-1-(3-methoxyphenyl)propan-2-yl]-1-methyl-imidazole-4-carboxamide] | 4.7
COc1cccc([C@@H](Oc2ccc3c(cnn3-c3ccc(F)cc3)c2)[C@H](C)NC(=O)c2cnoc2C)c1 [Example 284, N-[(1R,2S)-1-[1-(4-fluorophenyl)indazol-5-yl]oxy-1-(3-methoxyphenyl)propan-2-yl]-5-methyl-1,2-oxazole-4-carboxamide] | 22
COc1cccc([C@@H](Oc2ccc3c(cnn3-c3ccc(F)cc3)c2)[C@H](C)NC(=O)c2cc(C)c(C)o2)c1 [Example 286, N-[(1R,2S)-1-[1-(4-fluorophenyl)indazol-5-yl]oxy-1-(3-methoxlphenyl)propan-2-yl]-4,5-dimethyl-furan-2-carboxamide] | 4.7

The next lines start with the values.

IC50 [nM] | Structure (SMILES)
4.3 | COc1cccc([C@@H](Oc2ccc3c(cnn3-c3ccc(F)cc3)c2)[C@H](C)NC(=O)c2cc(C)n(C)n2)c1 [Example 287, N-[(1R,2S)-1-[1-(4-fluorophenyl)indazol-5-yl]oxy-1-(3-methoxyphenyl)propan-2-yl]-1,5-dimethyl-pyrazole-3-carboxamide]
5 | COc1cccc([C@@H](Oc2ccc3c(cnn3-c3ccc(F)cc3)c2)[C@H](C)NC(=O)c2ncsc2C)c1 [Example 288, N-[(1R,2S)-1-[1-(4-fluorophenyl)indazol-5-yl]oxy-1-(3-methoxyphenyl)propan-2-yl]-5-methyl-1,3-thiazole-4-carboxamide]
3.9 | COc1cccc([C@@H](Oc2ccc3c(cnn3-c3ccc(F)cc3)c2)[C@H](C)NC(=O)c2scnc2C)c1 [Example 289, N-[(1R,2S)-1-[1-(4-fluorophenyl)indazol-5-yl]oxy-1-(3-methoxyphenyl)propan-2-yl]-4-methyl-1,3-thiazole-5-carboxamide]
3.1 | COc1cccc([C@@H](Oc2ccc3c(cnn3-c3ccc(F)cc3)c2)[C@H](C)NC(=O)c2nc(C)cs2)c1 [Example 290, N-[(1R,2S)-1-[1-(4-fluorophenyl)indazol-5-yl]oxy-1-(3-methoxyphenyl)propan-2-yl]-4-methyl-1,3-thiazole-2-carboxamide]
6.4 | COc1cccc([C@@H](Oc2ccc3c(cnn3-c3ccc(F)cc3)c2)[C@H](C)NC(=O)c2cc(C)c(C)s2)c1 [Example 291, N-[(1R,2S)-1-[1-(4-fluorophenyl)indazol-5-yl]oxy-1-(3-methoxyphenyl)propan-2-yl]-4,5-dimethyl-thiophene-2-carboxamide]
5.7 | COc1cccc([C@@H](Oc2ccc3c(cnn3-c3ccc(F)cc3)c2)[C@H](C)NC(=O)c2sccc2OC)c1 [Example 292, N-[(1R,2S)-1-[1-(4-fluorophenyl)indazol-5-yl]oxy-1-(3-methoxyphenyl)propan-2-yl]-3-methoxy-thiophene-2-carboxamide]
4.4 | COc1cccc([C@@H](Oc2ccc3c(cnn3-c3ccc(F)cc3)c2)[C@H](C)NC(=O)c2cc3ccccn3n2)c1 [Example 293, N-[(1R,2S)-1-[1-(4-fluorophenyl)indazol-5-yl]oxy-1-(3-methoxyphenyl)propan-2-yl]-1,9-diazabicyclo[4.3.0]nona-2,4,6,8-tetraene-8-carboxamide]
